In patent US11366101B1, “Ex vivo systems and methods for determining the effect of a drug or other agent on a tissue” (Elephas Biosciences Corporation, priority 2020, dated 2022):
One block for each compound: values may come before it.

Experiments:
live tumor fragment = experiment: Diffusion of a small molecule drug and an antibody into a live tumor fragment (fluorescence imaging); type: in vitro ADME; details: live tumor fragment cultured at 37° C., time after addition
Description: Notable was gradual appearance of doxorubicin-characteristic fluorescence first in the periphery of tissue fragment at 15 minutes followed by full-thickness staining of the entire fragment area at 2 hours. […] Notable is plateau staining within about 5 h. As noted by this experiment, both small molecule drugs and large antibodies diffused into the live tissue fragments.

EMT6 tumor fragments [1] = experiment: Label-free MP-FLIM of NAD(P)H fluorescence lifetime in cultured tumor fragments; type: cell-based, mouse; details: 24 hours of exposure vs 0 h, p<0.002
Description: Live EMT6 tumors were cut into tissue fragments that were then sorted and cultured in glass-bottomed multi-well plates. To induce cancer cell death, one group was treated with the multi-kinase inhibitor, staurosporine (STS), and the control group was treated with the vehicle (Veh). Before (0 h) and after treatment (24 h), the structure and metabolic status of tumor fragments were imaged based on the intrinsically fluorescent metabolic co-factor nicotinamide dinucleotides (NAD(P)H) fluorescence intensity and lifetime using MP-FLIM by time-correlated single photon counting. The data was analyzed by fitting fluorescence decay curves with dual exponents. […] Each dot represents one fragment.

EMT6 tumor fragments [2] = experiment: NAD(P)H intensity multiphoton microscopy versus propidium iodide viability ground truth in cultured tumor fragments; type: cell-based, mouse; details: after 24 h, treated versus untreated
Description: Live EMT6 tumors were cut into tissue fragments that were then sorted and cultured in glass-bottomed multi-well plates. To induce cancer cell death, one group was treated with the multi-kinase inhibitor, staurosporine (STS), and the control group was untreated. After 24 h, the structure and metabolic status of tumor fragments were imaged based on the intrinsically fluorescent metabolic co-factor nicotinamide dinucleotides (NAD(P)H) fluorescence intensity using multiphoton microscopy with 720 nm excitation. […] For structural reference, the second harmonic generation was also imaged (blue).

[3] = tested on: human live tumor fragments; experiment: Supernatant cytokines of live tumor fragments by LEGENDPlex bead immunoassay, human; type: cell-based; details: cultured 48 or 72 h; for presence of IFN-γ and cytokines associated with immune activation relative to the untreated control: human samples
Description: (§1) Human tumor excisions were obtained from the University of Wisconsin (Institutional Review Board (IRB) approved) and CT26 tumors were grown in mice. Tumor excisions were cut into […] live tumor fragments of 100-300 μm thickness, sorted into multi-well plates, and cultured for 48 or 72 h in the presence or absence of anti-PD1 (nivolumab or mouse equivalent), anti-PD1 plus anti-CTLA4 (ipilimumab or mouse equivalent), or concanavalin A (ConA) as a positive control. Cell viability was ascertained by ATP luminescence assay or flow cytometry (not shown). Supernatant cytokines were measured using LEGENDPlex bead immunoassay. […] The presence of cytokines was greater in wells with 10 fragments than in wells with 3 fragments, indicating suitability of culture conditions.

CT26 tumor fragments = experiment: Supernatant cytokines of live tumor fragments by LEGENDPlex bead immunoassay, mouse; type: cell-based; details: mouse specimens, cultured 48 or 72 h
Description: as §1

appearance of doxorubicin-characteristic fluorescence in the periphery of tissue fragment (live tumor fragment): 15 min
full-thickness staining of the entire fragment area (live tumor fragment): 2 h
Compound: COc1cccc2c1C(=O)c1c(O)c3c(c(O)c1C2=O)C[C@@](O)(C(=O)CO)C[C@@H]3O[C@H]1C[C@H](N)[C@H](O)[C@H](C)O1 [doxorubicin]

Compound: CN[C@@H]1C[C@H]2O[C@@](C)([C@@H]1OC)n1c3ccccc3c3c4c(c5c6ccccc6n2c5c31)C(=O)NC4 [staurosporine]
NAD(P)H short lifetime component (a1) (EMT6 tumor fragments [1]): concomitant decrease
whole fragment NAD(P)H mean lifetime (tm) (EMT6 tumor fragments [1]): statistically significant increase
PI-stained nuclei (dead cells) (EMT6 tumor fragments [2]): increased numbers of PI-stained nuclei
NAD(P)H intensity (EMT6 tumor fragments [2]; 720 nm excitation): loss of NAD(P)H intensity

Compound: anti-PD1: immunotherapy drug anti-PD1 (nivolumab or mouse equivalent)
cytokine panel upregulation, fold increase relative to untreated control ([3]; human LTFs): cytokine panel upregulation was observed
presence of IFN-γ and cytokines associated with immune activation relative to the untreated control [3]: greater presence of IFN-γ and 16 cytokines
presence of IFN-γ and cytokines associated with immune activation, fold increase in relation to the untreated control (CT26 tumor fragments): greater presence of IFN-γ and 10 cytokines

Compound: concanavalin A [ConA]
presence of IFN-γ and cytokines associated with immune activation relative to the untreated control [3]: greater presence of IFN-γ and 16 cytokines
